Experimental data taken from patent US20260028354A1, “TETRAHYDRONAPHTHALENE DERIVATIVES AS ESTROGEN RECEPTOR DEGRADERS” (REGENT OF THE UNIVERSITY OF MICHIGAN, priority 2022, published 2026).
pIC50: −log10 of the molar value.

Experiment: Cell growth assay (WST-8) for "B" compounds
Format: cell-based
Settings: T47D cell line; read-out: Cell growth Inhibition in T47D cell line IC50
Protocol: Cell Growth Assay. The cells were seeded at 1500/well in 96 well plates overnight. One day after the seeding, they were treated with indicated doses of compounds respectively, 4 days after the compound treatment, 10% WST-8 reagent was added to the culture medium and incubate in a CO2 incubator at 37° C. for 2.5 hours. Before reading, the plate was mixed gently on an orbital shaker for one minute to ensure homogeneous distribution of color. The absorbance was measured of each sample using a microplate reader at a wavelength of 450 nm. The relative absorbance was calculated against the vehicle control from three individually repeats.

SMILES | pIC50
O=C1CCC(N2C(=O)c3cc4c(cc3C2=O)CN(CC(=O)N2CC3(CCN(c5ccc([C@@H]6c7ccc(O)cc7CC[C@@H]6c6ccccc6)cc5)CC3)C2)C4)C(=O)N1 (mixture of isomers) [Compound B5, 2-(2,6-dioxopiperidin-3-yl)-6-(2-(7-(4-((1R,2S)-6-hydroxy-2-phenyl-1,2,3,4-tetrahydronaphthalen-1-yl)phenyl)-2,7-diazaspiro[3.5]nonan-2-yl)-2-oxoethyl)-6,7-dihydropyrrolo[3,4-f]isoindole-1,3(2H,5H)-dione] | < 8.00
O=C1CCC(N2C(=O)c3cc4c(cc3C2=O)CN(CC(=O)N2CCC3(CC2)CCN(c2ccc([C@@H]5c6ccc(O)cc6CC[C@@H]5c5ccccc5)cc2)CC3)C4)C(=O)N1 (mixture of isomers) [Compound B12, 2-(2,6-dioxopiperidin-3-yl)-6-(2-(9-(4-((1R,2S)-6-hydroxy-2-phenyl-1,2,3,4-tetrahydronaphthalen-1-yl)phenyl)-3,9-diazaspiro[5.5]undecan-3-yl)-2-oxoethyl)-6,7-dihydropyrrolo[3,4-f]isoindole-1,3(2H,5H)-dione] | < 8.00

Same assay, conditions: T47D, T47D cell line; read-out: Cell growth Inhibition in T47D cell line IC50

SMILES | pIC50
C[C@H]1CC2(CCN(c3ccc([C@@H]4c5ccc(O)cc5CC[C@@H]4c4ccccc4)cc3)CC2)CN1C(=O)CN1Cc2cc3c(cc2C1)C(=O)N(C1CCC(=O)NC1=O)C3=O (mixture of isomers) [Compound B23, 2-(2,6-dioxopiperidin-3-yl)-6-(2-((S)-8-(4-((1R,2S)-6-hydroxy-2-phenyl-1,2,3,4-tetrahydronaphthalen-1-yl)phenyl)-3-methyl-2,8-diazaspiro[4.5]decan-2-yl)-2-oxoethyl)-6,7-dihydropyrrolo[3,4-f]isoindole-1,3(2H,5H)-dione] | < 8.00
O=C1CC[C@H](N2Cc3cc4c(cc3C2=O)OCC2(CN(CC3CCN(c5ccc([C@@H]6c7ccc(O)cc7CC[C@@H]6c6ccccc6)cc5)CC3)C2)O4)C(=O)N1 [Compound B395, (S)-3-(1-((1-(4-((1R,2S)-6-hydroxy-2-phenyl-1,2,3,4-tetrahydronaphthalen-1-yl)phenyl)piperidin-4-yl)methyl)-6′-oxo-6′,8′-dihydro-3′H,7′H-spiro[azetidine-3,2′-[1,4]dioxino[2,3-f]isoindol]-7′-yl)piperidine-2,6-dione] | 8.00 to 9.00

Same assay, conditions: T47D; read-out: Cell growth Inhibition in T47D cell line IC50

SMILES | pIC50
O=C1CC[C@H](N2Cc3c(ccc4c3OC[C@H]3CN(CC5COC6(CCN(c7ccc([C@@H]8c9ccc(O)cc9CC[C@@H]8c8ccccc8)cc7)CC6)C5)CCN43)C2=O)C(=O)N1 (stereo partly drawn) [Compound B226, (3S)-3-((5aR)-7-((8-(4-((1R,2S)-6-hydroxy-2-phenyl-1,2,3,4-tetrahydronaphthalen-1-yl)phenyl)-1-oxa-8-azaspiro[4.5]decan-3-yl)methyl)-1-oxo-1,3,5,5a,6,7,8,9-octahydro-2H-pyrazino[1′,2′: 4,5][1,4]oxazino[2,3-e]isoindol-2-yl)piperidine-2,6-dione] | > 9.00
O=C1CCC(N2Cc3c(ccc4c3OC[C@@H]3CN(C(=O)CN5CCN(c6ccc([C@@H]7c8ccc(O)cc8CC[C@@H]7c7ccccc7)cc6)CC5)CCN43)C2=O)C(=O)N1 (stereo partly drawn) [Compound B244, 3-((S)-7-(2-(4-(4-((1R,2S)-6-hydroxy-2-phenyl-1,2,3,4-tetrahydronaphthalen-1-yl)phenyl)piperazin-1-yl)acetyl)-1-oxo-1,3,5,5a,6,7,8,9-octahydro-2H-pyrazino[1′,2′:4,5][1,4]oxazino[2,3-e]isoindol-2-yl)piperidine-2,6-dione] | > 9.00
O=C1CCC(N2Cc3c(ccc4c3OC[C@H]3CN(C(=O)CN5CCN(c6ccc([C@@H]7c8ccc(O)cc8CC[C@@H]7c7ccccc7)cc6)CC5)CCN43)C2=O)C(=O)N1 (stereo partly drawn) [Compound B249, 3-((R)-7-(2-(4-(4-((1R,2S)-6-hydroxy-2-phenyl-1,2,3,4-tetrahydronaphthalen-1-yl)phenyl)piperazin-1-yl)acetyl)-1-oxo-1,3,5,5a,6,7,8,9-octahydro-2H-pyrazino[1′,2′:4,5][1,4]oxazino[2,3-e]isoindol-2-yl)piperidine-2,6-dione] | > 9.00
O=C1CC[C@H](N2Cc3c(ccc4c3OC[C@H]3CN(CC5CC6(C5)CN(c5ccc([C@@H]7c8ccc(O)cc8CC[C@@H]7c7ccccc7)cc5)C6)CCN43)C2=O)C(=O)N1 [Compound B351, (S)-3-((R)-7-((2-(4-((1R,2S)-6-hydroxy-2-phenyl-1,2,3,4-tetrahydronaphthalen-1-yl)phenyl)-2-azaspiro[3.3]heptan-6-yl)methyl)-1-oxo-1,3,5,5a,6,7,8,9-octahydro-2H-pyrazino[1′,2′:4,5][1,4]oxazino[2,3-e]isoindol-2-yl)piperidine-2,6-dione] | 8.00 to 9.00
O=C1CC[C@H](N2Cc3c(ccc4c3OC[C@H]3CN(C[C@@H]5COC6(CCN(c7ccc([C@@H]8c9ccc(O)cc9CC[C@@H]8c8ccccc8)cc7)CC6)C5)CCN43)C2=O)C(=O)N1 [Compound B396, (S)-3-((R)-7-(((R)-8-(4-((1R,2S)-6-hydroxy-2-phenyl-1,2,3,4-tetrahydronaphthalen-1-yl)phenyl)-1-oxa-8-azaspiro[4.5]decan-3-yl)methyl)-1-oxo-1,3,5,5a,6,7,8,9-octahydro-2H-pyrazino[1′,2′:4,5][1,4]oxazino[2,3-e]isoindol-2-yl)piperidine-2,6-dione] | > 9.00
O=C1CC[C@H](N2Cc3c(ccc4c3OC[C@H]3CN(C[C@H]5COC6(CCN(c7ccc([C@@H]8c9ccc(O)cc9CC[C@@H]8c8ccccc8)cc7)CC6)C5)CCN43)C2=O)C(=O)N1 [Compound B397, (S)-3-((R)-7-(((S)-8-(4-((1R,2S)-6-hydroxy-2-phenyl-1,2,3,4-tetrahydronaphthalen-1-yl)phenyl)-1-oxa-8-azaspiro[4.5]decan-3-yl)methyl)-1-oxo-1,3,5,5a,6,7,8,9-octahydro-2H-pyrazino[1′,2′:4,5][1,4]oxazino[2,3-e]isoindol-2-yl)piperidine-2,6-dione] | > 9.00

Experiment: Western blot analysis for "B" compounds
Format: cell-based
Settings: read-out: Traditional Western Degradation Potency (DC50)
Outline: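 Compound-treated cells lysed in RIPA buffer with protease inhibitors; equal protein (BCA) run on 10% SDS-PAGE, transferred to PVDF and probed with target antibodies. Band intensities quantified by densitometry and normalized to GAPDH.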

DC50 [nM] | SMILES
< 10 | O=C1CCC(N2C(=O)c3cc4c(cc3C2=O)CN(CC(=O)N2CC3(CCN(c5ccc([C@@H]6c7ccc(O)cc7CC[C@@H]6c6ccccc6)cc5)CC3)C2)C4)C(=O)N1 (mixture of isomers) [Compound B5, 2-(2,6-dioxopiperidin-3-yl)-6-(2-(7-(4-((1R,2S)-6-hydroxy-2-phenyl-1,2,3,4-tetrahydronaphthalen-1-yl)phenyl)-2,7-diazaspiro[3.5]nonan-2-yl)-2-oxoethyl)-6,7-dihydropyrrolo[3,4-f]isoindole-1,3(2H,5H)-dione]
10 to 100 | O=C1CCC(N2C(=O)c3cc4c(cc3C2=O)CN(CC(=O)N2CCC3(CC2)CCN(c2ccc([C@@H]5c6ccc(O)cc6CC[C@@H]5c5ccccc5)cc2)CC3)C4)C(=O)N1 (mixture of isomers) [Compound B12, 2-(2,6-dioxopiperidin-3-yl)-6-(2-(9-(4-((1R,2S)-6-hydroxy-2-phenyl-1,2,3,4-tetrahydronaphthalen-1-yl)phenyl)-3,9-diazaspiro[5.5]undecan-3-yl)-2-oxoethyl)-6,7-dihydropyrrolo[3,4-f]isoindole-1,3(2H,5H)-dione]
10 to 100 | C[C@H]1CC2(CCN(c3ccc([C@@H]4c5ccc(O)cc5CC[C@@H]4c4ccccc4)cc3)CC2)CN1C(=O)CN1Cc2cc3c(cc2C1)C(=O)N(C1CCC(=O)NC1=O)C3=O (mixture of isomers) [Compound B23, 2-(2,6-dioxopiperidin-3-yl)-6-(2-((S)-8-(4-((1R,2S)-6-hydroxy-2-phenyl-1,2,3,4-tetrahydronaphthalen-1-yl)phenyl)-3-methyl-2,8-diazaspiro[4.5]decan-2-yl)-2-oxoethyl)-6,7-dihydropyrrolo[3,4-f]isoindole-1,3(2H,5H)-dione]
> 100 | O=C1CCC(N2C(=O)c3cc4c(cc3C2=O)CC2(C4)CN(CC(=O)N3CC(Oc4ccc([C@@H]5c6ccc(O)cc6CC[C@@H]5c5ccccc5)cc4)C3)C2)C(=O)N1 (stereo partly drawn) [Compound B300, 2′-(2,6-dioxopiperidin-3-yl)-1-(2-(3-(4-((1R,2S)-6-hydroxy-2-phenyl-1,2,3,4-tetrahydronaphthalen-1-yl)phenoxy)azetidin-1-yl)-2-oxoethyl)-5′,7′-dihydro-1'H-spiro[azetidine-3,6′-cyclopenta[f]isoindole]-1′,3′(2′H)-dione]
> 100 | O=C1CCC(N2Cc3cc4c(cc3C2=O)CN(CC2CN(CC3CCN(c5ccc([C@@H]6c7ccc(O)cc7CC[C@@H]6c6ccccc6)cc5)CC3)C2)C4=O)C(=O)N1 (stereo partly drawn) [Compound B301, 2-(2,6-dioxopiperidin-3-yl)-6-((1-((1-(4-((1R,2S)-6-hydroxy-2-phenyl-1,2,3,4-tetrahydronaphthalen-1-yl)phenyl)piperidin-4-yl)methyl)azetidin-3-yl)methyl)-2,3,6,7-tetrahydropyrrolo[3,4-f]isoindole-1,5-dione]
> 100 | O=C1CCC(N2Cc3cc4c(cc3C2=O)CN(C2CN(CC3CCN(c5ccc([C@@H]6c7ccc(O)cc7CC[C@@H]6c6ccccc6)cc5)CC3)C2)C4=O)C(=O)N1 (stereo partly drawn) [Compound B302, 2-(2,6-dioxopiperidin-3-yl)-6-(1-((1-(4-((1R,2S)-6-hydroxy-2-phenyl-1,2,3,4-tetrahydronaphthalen-1-yl)phenyl)piperidin-4-yl)methyl)azetidin-3-yl)-2,3,6,7-tetrahydropyrrolo[3,4-f]isoindole-1,5-dione]
> 100 | O=C1CCC(N2Cc3cc4c(cc3C2=O)CN(C2CCN(CC3CCN(c5ccc([C@@H]6c7ccc(O)cc7CC[C@@H]6c6ccccc6)cc5)CC3)CC2)C4=O)C(=O)N1 (stereo partly drawn) [Compound B303, 2-(2,6-dioxopiperidin-3-yl)-6-(1-((1-(4-((1R,2S)-6-hydroxy-2-phenyl-1,2,3,4-tetrahydronaphthalen-1-yl)phenyl)piperidin-4-yl)methyl)piperidin-4-yl)-2,3,6,7-tetrahydropyrrolo[3,4-f]isoindole-1,5-dione]
> 100 | Cn1cc(-c2ccc3c(c2)CC[C@H](c2ccccc2)[C@@H]3c2ccc(N3CCC4(CCN(C(=O)CN5Cc6cc7c(cc6C5)C(=O)N(C5CCC(=O)NC5=O)C7=O)CC4)CC3)cc2)cn1 (stereo partly drawn) [Compound B323, 2-(2,6-dioxopiperidin-3-yl)-6-(2-(9-(4-((1R,2S)-6-(1-methyl-1H-pyrazol-4-yl)-2-phenyl-1,2,3,4-tetrahydronaphthalen-1-yl)phenyl)-3,9-diazaspiro[5.5]undecan-3-yl)-2-oxoethyl)-6,7-dihydropyrrolo[3,4-f]isoindole-1,3(2H,5H)-dione]
> 100 | O=C1CCC(N2C(=O)c3cc4c(cc3C2=O)CN(CC(=O)N2CCC3(CC2)CCN(c2ccc([C@@H]5c6ccc(-c7cn[nH]c7)cc6CC[C@@H]5c5ccccc5)cc2)CC3)C4)C(=O)N1 (stereo partly drawn) [Compound B324, 2-(2,6-dioxopiperidin-3-yl)-6-(2-oxo-2-(9-(4-((1R,2S)-2-phenyl-6-(1H-pyrazol-4-yl)-1,2,3,4-tetrahydronaphthalen-1-yl)phenyl)-3,9-diazaspiro[5.5]undecan-3-yl)ethyl)-6,7-dihydropyrrolo[3,4-f]isoindole-1,3(2H,5H)-dione]

SMILES | DC50 [nM]
O=C1CCC(N2Cc3cc4c(cc3C2=O)C(=O)N(CC2CN(CC3CCN(c5ccc([C@@H]6c7ccc(O)cc7CC[C@@H]6c6ccccc6)cc5)CC3)C2)C4)C(=O)N1 (stereo partly drawn) [Compound B305, 2-(2,6-dioxopiperidin-3-yl)-6-((1-((1-(4-((1R,2S)-6-hydroxy-2-phenyl-1,2,3,4-tetrahydronaphthalen-1-yl)phenyl)piperidin-4-yl)mcthyl)azctidin-3-yl)methyl)-2,3,5,6-tctrahydropyrrolo[3,4-f]isoindole-1,7-dione] | > 100
